From patent publication US9266876B2 (Actelion Pharmaceuticals Ltd., priority 2012, dated 2016) come the findings set out here.

The structures appear in SMILES notation.

The target in one experiment is CXCR3 (Homo sapiens (Human), UniProt P49682). Put plainly: Receptor internalization assay. The class given is cell-based. The settings on record: human whole blood; final CXCL10 concentration 9 nM; 30 min 37° C.; CXCR3 cell surface expression on CD3 positive cells, flow cytometer; read-out: Internalization IC50. The method, boiled down: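 In human whole blood, compounds were incubated with CXCL10 (9 nM final) for 30 min at 37 °C to drive receptor internalization, then stained with anti-CXCR3/CD3 antibodies and lysed of red cells. Flow cytometry measured mean surface CXCR3 fluorescence on CD3+ cells, and IC50 came from single-site dose-response fits.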
Background: A flow cytometer gives signals particle by particle.

The next experiment has as its target human CXCR3A (Homo sapiens (Human), UniProt P49682). The experiment is described as follows: FLIPR assay. The settings on record: CHO-K1 cells expressing the human CXCR3A coupled to Galpha(16); CXCL10 agonist 20 nM; Fluo-4-AM fluorescence; mean values if determined several times. The format is cell-based. The method, boiled down: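 CHO-K1 cells expressing CXCR3A coupled to Gα16 were loaded with Fluo-4-AM for 1 h in Hepes-buffered HBSS, pH 7.4, with 5 mM probenecid. Compound dilutions were added on the FLIPR, followed by CXCL10 (added as a 20 nM solution). Baseline-subtracted peak fluorescence was fitted to a single-site curve for IC50.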

human CXCR3A, sequence (P49682 whole entry): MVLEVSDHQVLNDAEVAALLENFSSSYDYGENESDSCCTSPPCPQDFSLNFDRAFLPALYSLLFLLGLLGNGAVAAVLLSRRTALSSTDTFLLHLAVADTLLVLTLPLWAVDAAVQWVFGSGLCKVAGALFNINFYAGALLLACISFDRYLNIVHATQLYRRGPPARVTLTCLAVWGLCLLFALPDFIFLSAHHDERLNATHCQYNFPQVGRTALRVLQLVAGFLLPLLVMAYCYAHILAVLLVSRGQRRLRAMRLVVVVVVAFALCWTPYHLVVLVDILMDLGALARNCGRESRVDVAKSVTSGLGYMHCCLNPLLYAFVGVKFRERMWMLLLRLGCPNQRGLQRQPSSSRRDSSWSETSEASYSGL
CXCR3, sequence (P49682 whole entry): as above

For orientation: IC50 means the concentration at which inhibition is half-maximal. Regarding `C[C@@H]1CN(c2sc(C(F)(F)F)nc2-c2nc3ccccc3[nH]2)CCN1C(=O)Cn1cnc2c1CCN(C)C2` [Example 209, 1-{(R)-4-[4-(1H-Benzoimidazol-2-yl)-2-trifluoromethyl-thiazol-5-yl]-2-methyl-piperazin-1-yl}-2-(5-methyl-4,5,6,7-tetrahydro-imidazo[4,5-c]pyridin-1-yl)-ethanone], the IC50 on CXCR3 was 101 nM; at human CXCR3A, 3 nM.

Take `C[C@@H]1CN(c2sc(C(F)(F)F)nc2-c2nc3ccccc3[nH]2)CCN1C(=O)Cn1cnc2c1CN(C)CC2` [Example 210, 1-{(R)-4-[4-(1H-Benzoimidazol-2-yl)-2-trifluoromethyl-thiazol-5-yl]-2-methyl-piperazin-1-yl}-2-(5-methyl-4,5,6,7-tetrahydro-imidazo[4,5-c]pyridin-3-yl)-ethanone]: the figures for the IC50 at CXCR3 and on human CXCR3A were 121 nM and 1 nM, respectively.

With `Cc1nn(CC(=O)N2CCN(c3sc(C(F)(F)F)nc3-c3nc4ccccc4[nH]3)C[C@H]2C)cc1CN(C)C` [Example 211, 1-{(R)-4-[4-(1H-Benzoimidazol-2-yl)-2-trifluoromethyl-thiazol-5-yl]-2-methyl-piperazin-1-yl}-2-(4-dimethylaminomethyl-3-methyl-pyrazol-1-yl)-ethanone], the IC50 on CXCR3 worked out at 227 nM; on human CXCR3A, 1 nM.

Regarding `Cc1ncnn1CC(=O)N1CCN(c2sc(C(F)(F)F)nc2-c2nc3ccccc3[nH]2)C[C@H]1C` [Example 212, 1-{(R)-4-[4-(1H-Benzoimidazol-2-yl)-2-trifluoromethyl-thiazol-5-yl]-2-methyl-piperazin-1-yl}-2-(5-methyl-[1,2,4]triazol-1-yl)-ethanone], the IC50 at CXCR3 turned out to be 737 nM; on human CXCR3A, 4 nM.

In the case of `Cc1ncn(CC(=O)N2CCN(c3sc(C(F)(F)F)nc3-c3nc4ccccc4[nH]3)C[C@H]2C)n1` [Example 213, 1-{(R)-4-[4-(1H-Benzoimidazol-2-yl)-2-trifluoromethyl-thiazol-5-yl]-2-methyl-piperazin-1-yl}-2-(3-methyl-[1,2,4]triazol-1-yl)-ethanone], the IC50 turned out to be 373 nM on CXCR3 and 1 nM at human CXCR3A.

Take `Cc1nn(CC(=O)N2CCN(c3sc(C(F)(F)F)nc3-c3nc4ccccc4[nH]3)C[C@H]2C)c(C)c1CN(C)C` [Example 214, 1-{(R)-4-[4-(1H-Benzoimidazol-2-yl)-2-trifluoromethyl-thiazol-5-yl]-2-methyl-piperazin-1-yl}-2-(4-dimethylaminomethyl-3,5-dimethyl-pyrazol-1-yl)-ethanone]: the IC50 was determined as 72 nM on CXCR3 and 2 nM on human CXCR3A.

As to `C[C@@H]1CN(c2sc(C(F)(F)F)nc2-c2nc3ccccc3[nH]2)CCN1C(=O)Cn1cc2c(n1)CCN(C)C2` [Example 215, 1-{(R)-4-[4-(1H-Benzoimidazol-2-yl)-2-trifluoromethyl-thiazol-5-yl]-2-methyl-piperazin-1-yl}-2-(5-methyl-4,5,6,7-tetrahydro-pyrazolo[4,3-c]pyridin-2-yl)-ethanone], the IC50 at CXCR3 amounted to 271 nM; on human CXCR3A, 2 nM.

Take `C[C@@H]1CN(c2sc(C(F)(F)F)nc2-c2nc3ccccc3[nH]2)CCN1C(=O)Cn1ncc2c1CCN(C)C2` [Example 216, 1-{(R)-4-[4-(1H-Benzoimidazol-2-yl)-2-trifluoromethyl-thiazol-5-yl]-2-methyl-piperazin-1-yl}-2-(5-methyl-4,5,6,7-tetrahydro-pyrazolo[4,3-c]pyridin-1-yl)-ethanone]: the values for the IC50 on CXCR3 and on human CXCR3A were 90 nM and 2 nM, respectively.

Take `C[C@@H]1CN(c2sc(C(F)(F)F)nc2-c2nc3ccccc3[nH]2)CCN1C(=O)CN1CCc2[nH]ncc2C1` [Example 217, 1-{(R)-4-[4-(1H-Benzoimidazol-2-yl)-2-trifluoromethyl-thiazol-5-yl]-2-methyl-piperazin-1-yl}-2-(1,4,6,7-tetrahydro-pyrazolo[4,3-c]pyridin-5-yl)-ethanone]: the IC50 on CXCR3 came to 5010 nM; on human CXCR3A, 21 nM.

Take `Cc1nc(CN(C)C)nn1CC(=O)N1CCN(c2sc(C(F)(F)F)nc2-c2nc3ccccc3[nH]2)C[C@H]1C` [Example 218, 1-{(R)-4-[4-(1H-Benzoimidazol-2-yl)-2-trifluoromethyl-thiazol-5-yl]-2-methyl-piperazin-1-yl}-2-(3-dimethylaminomethyl-5-methyl-[1,2,4]triazol-1-yl)-ethanone]: the IC50 is 540 nM on CXCR3 and 8 nM on human CXCR3A.

As for `Cc1cc(CC(=O)N2CCN(c3sc(C(F)(F)F)nc3-c3nc4ccccc4[nH]3)C[C@H]2C)cc(C)n1` [Example 219], the IC50 turned out to be 1460 nM at CXCR3 and 4 nM on human CXCR3A.

On to `Cc1cc(C)nc(CC(=O)N2CCN(c3sc(C(F)(F)F)nc3-c3nc4ccccc4[nH]3)C[C@H]2C)c1` [Example 220], for which the half-inhibitory concentration (IC50) at CXCR3 turned out to be 2620 nM; on human CXCR3A, 19 nM.

With `C[C@@H]1CN(c2sc(C(F)(F)F)nc2-c2nc3ccccc3[nH]2)CCN1C(=O)Cn1cc(C2CCNCC2)cn1` [Example 221, 1-{(R)-4-[4-(1H-Benzoimidazol-2-yl)-2-trifluoromethyl-thiazol-5-yl]-2-methyl-piperazin-1-yl}-2-(4-piperidin-4-yl-pyrazol-1-yl)-ethanone], the results for the IC50 at CXCR3 and at human CXCR3A were 1090 nM and 6 nM, respectively.

Turning to `C[C@@H]1CN(c2sc(C(F)(F)F)nc2-c2nc3ccccc3[nH]2)CCN1C(=O)Cn1cc(C2CCN(C)CC2)cn1` [Example 222, 1-{(R)-4-[4-(1H-Benzoimidazol-2-yl)-2-trifluoromethyl-thiazol-5-yl]-2-methyl-piperazin-1-yl}-2-[4-(1-methyl-piperidin-4-yl)-pyrazol-1-yl]-ethanone], the IC50 on CXCR3 was found to be 1500 nM; on human CXCR3A it was 16 nM.

Regarding `C[C@@H]1CN(c2sc(CN(C)C)nc2-c2nc3ccccc3[nH]2)CCN1C(=O)Cn1cnc2cccnc21` [Example 223, 1-{(R)-4-[4-(1H-Benzoimidazol-2-yl)-2-dimethylaminomethyl-thiazol-5-yl]-2-methyl-piperazin-1-yl}-2-imidazo[4,5-b]pyridin-3-yl-ethanone], the IC50 on CXCR3 was 1130 nM; at human CXCR3A, 27 nM.

For `C[C@@H]1CN(c2sc(CO)nc2-c2nc3ccccc3[nH]2)CCN1C(=O)Cn1cnc2cccnc21` [Example 225, 1-{(R)-4-[4-(1H-Benzoimidazol-2-yl)-2-hydroxymethyl-thiazol-5-yl]-2-methyl-piperazin-1-yl}-2-imidazo[4,5-b]pyridin-3-yl-ethanone], the IC50 at CXCR3 amounted to 3460 nM; at human CXCR3A, 54 nM.

As to `O=C(Cn1cnc2cccnc21)N1CCN(c2sc(C(F)(F)F)nc2-c2nc3ccccc3[nH]2)CC1` [Example 226, 1-{4-[4-(1H-Benzoimidazol-2-yl)-2-trifluoromethyl-thiazol-5-yl]-piperazin-1-yl}-2-imidazo[4,5-b]pyridin-3-yl-ethanone], the results for the IC50 at CXCR3 and at human CXCR3A were 363 nM and 1 nM, respectively.

`Cc1nc(C)n(CC(=O)N2CCN(c3sc(C(F)(F)F)nc3-c3nc4ccccc4[nH]3)C[C@H]2CN(C)C)n1` [Example 227, 1-{(R)-4-[4-(1H-Benzoimidazol-2-yl)-2-trifluoromethyl-thiazol-5-yl]-2-dimethylaminomethyl-piperazin-1-yl}-2-(3,5-dimethyl-[1,2,4]triazol-1-yl)-ethanone]: the figures for the IC50 on CXCR3 and on human CXCR3A were 69 nM and 8 nM, respectively.

Regarding `CN(C)C[C@@H]1CN(c2sc(C(F)(F)F)nc2-c2nc3ccccc3[nH]2)CCN1C(=O)Cn1cnc2cccnc21` [Example 228, 1-{(R)-4-[4-(1H-Benzoimidazol-2-yl)-2-trifluoromethyl-thiazol-5-yl]-2-dimethylaminomethyl-piperazin-1-yl}-2-imidazo[4,5-b]pyridin-3-yl-ethanone], the IC50 turned out to be 12 nM at CXCR3 and 4 nM on human CXCR3A.

Take `CN(C)C[C@@H]1CN(c2scnc2-c2nc3ccccc3[nH]2)CCN1C(=O)Cn1cnc2cccnc21` [Example 229, 1-{(R)-4-[4-(1H-Benzoimidazol-2-yl)-thiazol-5-yl]-2-dimethylaminomethyl-piperazin-1-yl}-2-imidazo[4,5-b]pyridin-3-yl-ethanone]: the IC50 at CXCR3 was found to be 98 nM; on human CXCR3A, 1 nM.

Consider `Cc1nc(C)n(CC(=O)N2CCN(c3sc(C(F)(F)F)nc3-c3nc4c(F)cccc4[nH]3)C[C@H]2C)n1` [Example 230, 2-(3,5-Dimethyl-[1,2,4]triazol-1-yl)-1-{(R)-4-[4-(4-fluoro-1H-benzoimidazol-2-yl)-2-trifluoromethyl-thiazol-5-yl]-2-methyl-piperazin-1-yl}-ethanone], for which the results for the IC50 on CXCR3 and at human CXCR3A were 139 nM and 1 nM, respectively.

In the case of `Cc1nc(C)n(CC(=O)N2CCN(c3sc(C(F)(F)F)nc3-c3nc4c(F)c(F)ccc4[nH]3)C[C@H]2C)n1` [Example 231, 1-{(R)-4-[4-(4,5-Difluoro-1H-benzoimidazol-2-yl)-2-trifluoromethyl-thiazol-5-yl]-2-methyl-piperazin-1-yl}-2-(3,5-dimethyl-[1,2,4]triazol-1-yl)-ethanone], the IC50 at CXCR3 is 332 nM; at human CXCR3A, 1 nM.

For `Cc1nc(C)n(CC(=O)N2CCN(c3sc(C(F)(F)F)nc3-c3nc4c(C(F)(F)F)cccc4[nH]3)C[C@H]2C)n1` [Example 232, 2-(3,5-Dimethyl-[1,2,4]triazol-1-yl)-1-{(R)-2-methyl-4-[2-trifluoromethyl-4-(4-trifluoromethyl-1H-benzoimidazol-2-yl)-thiazol-5-yl]-piperazin-1-yl}-ethanone], the IC50 on CXCR3 stood at 494 nM; on human CXCR3A it was 7 nM.
